Reference: patent publication US8597620B2, “Composition comprising a tocopherol phosphate and preparation process” (LVMH Recherche, priority 2010, dated 2013)

Test: Assaying of tocopherol phosphate by HPLC in the concentrated aqueous solution (state of dissolution)
Type: physicochemical
Conditions: concentrated aqueous solution of Example 1 (3.5% PPG-6-Decyltetradeceth-20, 17.4% 1,2-pentanediol, 8.7% γ-TPNa added, water), UV 290 nm, ambient temperature
Procedure: Method for the Assaying of Tocopherol Phosphate by HPLC
The concentrated solution of γ-TPNa obtained in Example 1 and the compositions prepared in Examples 2 to 5 are assayed for tocopherol phosphate by HPLC according to the following conditions:
Elution gradient:—Eluent A: sodium acetate/acetic acid buffer pH 4.2 • Eluent B=methanol/THF (80/20)
Preparation of the Solutions
Diluent: Eluent A/eluent B (20/80 v/v)
Standard solution for the calibration=solution of γ-TPNa at 0.08 mg/ml of diluent.
Solution for the assaying of the concentrated solution (Ex. 1):
100 mg of the concentrated aqueous solution are withdrawn and diluted in 100 ml of diluent.

For `Cc1c(OP(=O)([O-])[O-])cc2c(c1C)OC(C)(CCCC(C)CCCC(C)CCCC(C)C)CC2.[Na+].[Na+]` (stereo not shown) [γ-TPNa, Sodium salt of γ-tocopherol phosphate], the “Result of the assaying of the γ-TPNa in the concentrated solution (dissolved amount)” value was 8.7 % by weight.
